Consider two compounds from PMC4132841 (Neuron, 2012).

One test deals with GluK2b(Q) and GluK3 (Rattus norvegicus, UniProt P42264). The test can be described thus: Glutamate-activated currents in HEK293 cells cotransfected with GluK2b. Format: cell-based. The following applies: 1 μM UBP310; n = 6.
For test [1], the target named is T1, GluK3 (Rattus norvegicus, UniProt P42264). The test is classed as cell-based. Particulars: for effect of zinc on GluK3 currents: 100 μM zinc.
Test [2] has as its target T2, GluK2 (Rattus norvegicus, UniProt P42260). The test is classed as cell-based. Particulars: 10 mM glutamate.
Test [3] deals with heteromeric GluK2/GluK3 receptors (Rattus norvegicus, UniProt P42260+P42264). The experiment in a line: Glutamate currents of heteromeric GluK2b. Format: cell-based.
The target in test [4] is T1, GluK3. The test is classed as cell-based.
The target of test [5] is T2, GluK2. Format: cell-based. Particulars: 100 μM zinc; control 3.4 ± 0.1 ms; n = 5; p = 0.20.
In another test the target is GluK3(ERLK) (Rattus norvegicus, UniProt P42264, I781L/K527E/K698R/Q785K). The experiment in a line: Glutamate currents of desensitization mutant GluK3. The test is classed as cell-based. Particulars: 100 μM zinc.
In a further test the target is GluK3(H492C, L753C) (Rattus norvegicus, UniProt P42264, H523C/L784C). The test can be described thus: Glutamate currents of desensitization mutant GluK3. The following applies: 100 μM zinc; 10 mM glutamate, 100 ms. Format: cell-based.
For test [6], the system named is extracellular domain of GluK3 and the transmembrane and intracellular segments of GluK2. The experiment in a line: Whole-cell glutamate currents of chimeric receptor. The following applies: 100 μM zinc; 10 mM glutamate, 100 ms; n = 5. The test is classed as cell-based, rat.
The subject of test [7] is transmembrane and intracellular segments of GluK3 and the extracellular domain of GluK2. The experiment in a line: Whole-cell glutamate currents of chimeric receptor. Format: cell-based, rat. Particulars: 100 μM zinc; 10 mM glutamate, 100 ms; n = 4.
For test [8], the target named is GluK3 subunits deleted of their ATD (Rattus norvegicus, UniProt P42264). The test can be described thus: Whole-cell glutamate currents of ATD-deleted receptor. Format: cell-based. Particulars: 100 μM zinc; 10 mM glutamate, 100 ms; n = 5.
The target in test [9] is GluK2 receptors where the ATD was excised (Rattus norvegicus, UniProt P42260). The description is as above. Format: cell-based. The following applies: 100 μM zinc; 10 mM glutamate, 100 ms; n = 4.
For another test, the target named is GluK3/K2S2 (Rattus norvegicus, UniProt P42260+P42264, A594P/A717V/A732S/D593N/D790G/E602D/E705D/F704Y/G600D/I638V/I746V/I767V/I794M/I818V/I844L/INS713R/K688E/K714R/K820N/L736F/L837F/M618V/N721S/N810S/P715Q/S620A/S803N/T729V/V569I/Y745F). The experiment in a line: Whole-cell glutamate currents of S2 chimera. Format: cell-based. The following applies: 100 μM zinc; 10 mM glutamate, 100 ms; n = 5.

The next test relates to GluK2/K3S2. The experiment in a line: Whole-cell glutamate currents of S2 chimera. The test is classed as cell-based, rat. The following applies: 100 μM zinc; 10 mM glutamate, 100 ms; n = 5.
The next test concerns the target GluK2(G758D) (Rattus norvegicus, UniProt P42260, G789D). The test can be described thus: Glutamate currents of point mutant, outside-out patches. The test is classed as cell-based. The following applies: 100 μM zinc; 10 mM glutamate; n = 6.
The target of a further test is GluK3(D759G) (Rattus norvegicus, UniProt P42264, D790G). Described as above. Format: cell-based. The following applies: 100 μM zinc; 10 mM glutamate; n = 5.
Another test deals with GluK3(H762A) (Rattus norvegicus, UniProt P42264, H793A). Described as above. Format: cell-based. Particulars: 100 μM zinc; 10 mM glutamate; n = 5.
The target of another test is GluK3(H492Y) (Rattus norvegicus, UniProt P42264, H523Y). The experiment in a line: Glutamate currents of point mutant. The test is classed as cell-based. Particulars: 100 μM zinc; 10 mM glutamate.
The next test has as its target GluK3(H492A) (Rattus norvegicus, UniProt P42264, H523A). The experiment in a line: Glutamate currents of point mutant. Format: cell-based. The following applies: 100 μM zinc; 10 mM glutamate.
Another test has as its target GluK2(Y490H) (Rattus norvegicus, UniProt P42260, Y521H). The experiment in a line: Glutamate currents of point mutant. Format: cell-based. The following applies: 100 μM zinc; 10 mM glutamate.
The next test concerns the target GluK3(D730A) (Rattus norvegicus, UniProt P42264, D761A). The experiment in a line: Glutamate currents of point mutant, outside-out patches. Format: cell-based. The following applies: 100 μM zinc; 10 mM glutamate; n = 6.
A further test has as its target GluK3(D730N) (Rattus norvegicus, UniProt P42264, D761N). The test is described as above. Format: cell-based. Particulars: 100 μM zinc; 10 mM glutamate.
The next test addresses GluK2b and GluK3(D730A) (Rattus norvegicus, UniProt P42260+P42264, D761A). The test can be described thus: Glutamate currents of heteromeric mutant receptors, 1 μM UBP310 present. Particulars: 100 μM zinc, 10 mM glutamate. The test is classed as cell-based.
A further test addresses GluK2b(D729A) and GluK3 (Rattus norvegicus, UniProt P42260+P42264, D760A). The experiment in a line: Glutamate currents of heteromeric mutant receptors. The test is classed as cell-based. The following applies: 10 mM glutamate.
Test [10] deals with KARs containing GluK4 or GluK5 subunits. Particulars: read-out: IC50 of zinc inhibition; ref Mott et al., 2008; cited from earlier work.
For a further test, the system named is GluK1-GluK2. The following applies: read-out: IC50 of zinc inhibition; ref Mott et al., 2008; cited from earlier work.
Another test relates to GluN1/GluN2A receptors. The following applies: ref Paoletti et al., 1997; cited from earlier work.
In the next test the test system is GluN1/GluN2B. The following applies: ref Paoletti et al., 1997; cited from earlier work.
Where [11] appears, read: combined potentiation/inhibition Hill equations.

“And” between values parts separate entries of the source, which are not always exact repeats. Equal entries are not always repeated. Where two headings read alike, the source gives them in different places.

T1 sequence (P42264 32-919): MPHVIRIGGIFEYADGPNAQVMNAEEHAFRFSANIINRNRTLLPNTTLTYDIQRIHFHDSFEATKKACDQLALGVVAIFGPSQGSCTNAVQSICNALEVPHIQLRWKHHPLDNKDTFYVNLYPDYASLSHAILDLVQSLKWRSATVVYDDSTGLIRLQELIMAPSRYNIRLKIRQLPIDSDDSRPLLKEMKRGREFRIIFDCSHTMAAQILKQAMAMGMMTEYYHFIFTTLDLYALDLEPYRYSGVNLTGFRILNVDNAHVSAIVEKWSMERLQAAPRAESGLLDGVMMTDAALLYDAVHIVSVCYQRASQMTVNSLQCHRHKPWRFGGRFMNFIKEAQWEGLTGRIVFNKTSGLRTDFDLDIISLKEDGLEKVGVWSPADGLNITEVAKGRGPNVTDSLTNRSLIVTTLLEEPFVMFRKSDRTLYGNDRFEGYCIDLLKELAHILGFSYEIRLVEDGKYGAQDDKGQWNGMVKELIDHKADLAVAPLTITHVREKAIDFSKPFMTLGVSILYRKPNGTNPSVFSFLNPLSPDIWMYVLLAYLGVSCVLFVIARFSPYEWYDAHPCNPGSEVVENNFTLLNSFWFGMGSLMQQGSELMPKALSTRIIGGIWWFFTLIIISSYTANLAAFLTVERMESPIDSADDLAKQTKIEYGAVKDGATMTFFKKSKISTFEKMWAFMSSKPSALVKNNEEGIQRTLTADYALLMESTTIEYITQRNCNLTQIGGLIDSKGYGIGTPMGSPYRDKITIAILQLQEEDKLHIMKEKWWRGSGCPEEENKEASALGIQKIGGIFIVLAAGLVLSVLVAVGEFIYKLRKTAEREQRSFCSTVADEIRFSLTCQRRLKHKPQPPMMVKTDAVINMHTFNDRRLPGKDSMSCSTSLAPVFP
Sequence of GluK3(ERLK) (P42264 32-919 K527E/K698R/I781L/Q785K): as the sequence (P42264 32-919) above, with K496E, K667R, I750L, Q754K counted along it
Sequence of GluK3 subunits deleted of their ATD (P42264 376-919, stated change not applied): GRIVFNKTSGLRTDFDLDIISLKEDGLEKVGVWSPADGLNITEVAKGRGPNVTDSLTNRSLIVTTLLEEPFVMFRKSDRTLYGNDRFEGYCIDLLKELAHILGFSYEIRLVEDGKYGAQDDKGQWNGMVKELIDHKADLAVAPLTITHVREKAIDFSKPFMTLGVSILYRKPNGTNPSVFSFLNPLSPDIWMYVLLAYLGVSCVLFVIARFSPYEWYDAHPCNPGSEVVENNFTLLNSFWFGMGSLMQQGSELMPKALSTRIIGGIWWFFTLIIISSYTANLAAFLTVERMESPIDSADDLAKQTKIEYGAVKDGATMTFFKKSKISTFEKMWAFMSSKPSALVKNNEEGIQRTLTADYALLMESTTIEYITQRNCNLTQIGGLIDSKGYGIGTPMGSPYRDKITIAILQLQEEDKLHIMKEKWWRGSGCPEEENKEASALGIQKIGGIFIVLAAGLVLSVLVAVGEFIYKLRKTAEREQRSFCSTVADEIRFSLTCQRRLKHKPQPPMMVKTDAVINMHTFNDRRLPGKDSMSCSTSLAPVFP
Sequence of GluK3(D759G) (P42264 32-919 D790G): as the sequence (P42264 32-919) above, with D759G counted along it
Sequence of GluK3(H762A) (P42264 32-919 H793A): as the sequence (P42264 32-919) above, with H762A counted along it
Sequence of GluK3(H492A) (P42264 32-919 H523A): as the sequence (P42264 32-919) above, with H492A counted along it
Sequence of GluK3(H492Y) (P42264 32-919 H523Y): as the sequence (P42264 32-919) above, with H492Y counted along it
Sequence of GluK3(D730N) (P42264 32-919 D761N): as the sequence (P42264 32-919) above, with D730N counted along it
Sequence of GluK3(D730A) (P42264 32-919 D761A): as the sequence (P42264 32-919) above, with D730A counted along it
Sequence of GluK3(H492C, L753C) (P42264 32-919 H523C/L784C): as the sequence (P42264 32-919) above, with H492C, L753C counted along it
Sequence of GluK2b(Q) and GluK3 (P42264 32-919): as the sequence (P42264 32-919) above

In the case of `Cc1cn(C[C@H](N)C(=O)O)c(=O)n(Cc2ccsc2C(=O)O)c1=O` [UBP310], on GluK2b(Q) and GluK3, the “inhibition of glutamate-activated currents” value is recorded as 55%.
The IC50 is the point on the concentration scale where inhibition reaches its midpoint. In the case of `[Cl-].[Cl-].[Zn+2]` [zinc, ZnCl2], the “current amplitude with zinc, % of control amplitude” value is reported as 193% ± 38% on GluK3 [1] (100 μM zinc preapplied, 10 mM glutamate, 100 ms, whole-cell, n = 17); 191% ± 22% on GluK3 [4] (1 ms pulses of 10 mM glutamate, n = 4); 175% ± 9% in test [6]; 177% ± 7% at GluK2(G758D); 33% ± 2% at GluK3(D730A). For the same compound, the “effect of zinc on GluK3 currents” value at GluK3 [1] (pH 6.8) is listed as “inhibited”; on GluK3 [1] (pH 8.3), “potentiated”. Besides, the “zinc concentrations that clearly inhibit currents” value on GluK3 [1] (WT GluK3 receptors) is recorded as “above 300 μM”. In addition, the “maximal potentiation of GluK3 currents by zinc” value at GluK3 [1] (setting [11]) is given as 475% ± 47%. On GluK3 [1] (setting [11]), the “nH of zinc potentiation of GluK3 currents” value turned out to be 1.82 ± 0.95. The “zinc concentrations that potentiate glutamate currents” value at GluK3 [1] (homomeric and heteromeric KARs containing GluK3) was in the range of 10 to 100 µM. Further, the “effect of zinc on GluK3-mediated currents” value on GluK3 [1] (simultaneous application of zinc and glutamate, data not shown) is reported as “does not potentiate”. Moreover, the “Hill coefficient (nH) of zinc inhibition of GluK2 currents” value on GluK2 [2] is 1.1 and 1.1 ± 0.1. Besides, in test [3] (100 μM zinc, 10 mM glutamate, 1 μM UBP310, n = 18), the “UBP310-resistant current with zinc, % of control” value was 157% ± 7%. Moreover, the “maximal potentiation by zinc, % of control” value in test [3] (10 mM glutamate, Hill fit) turned out to be 286%. In test [3] (10 mM glutamate, Hill fit), the “nH of zinc potentiation of GluK2/GluK3 currents” value is 0.6 and 0.6 ± 0.4. Besides, the “inhibition of GluK2/GluK3 currents by high zinc” value in test [3] (zinc concentrations up to 1 mM) is listed as “no inhibition”. The “τdes (current decay) with zinc” value on GluK3 [4] (100 μM zinc, 10 mM glutamate, 100 ms, control 5.0 ± 0.2 ms, n = 8) amounted to 9.8 ± 0.4 ms; at GluK2 [5] it was 3.7 ± 0.1 ms. Moreover, the “time for half-recovery from desensitization with zinc” value on GluK3 [4] (100 μM zinc, absence of zinc 902 ± 1.1 ms, n = 5) came out at 460 ± 1.2 ms. Also, on GluK3 [4] (1 ms pulses of 10 mM glutamate, control 1.5 ± 0.05 ms, n = 4), the “deactivation kinetics with zinc” value amounted to 2.3 ± 0.1 ms. Further, the “effect of zinc on desensitization rate” value on GluK3(ERLK) is on record as “no change”. Further, the “effect of zinc on glutamate currents” value on GluK3(ERLK) (10 mM glutamate, 100 ms) is given as “inhibited rather than potentiated”; on GluK3(H492C, L753C), “inhibited”; at GluK3(H492Y), “still potentiated”; on GluK3(H492A) it was “still potentiated”; on GluK2(Y490H), “inhibited”; at GluK3(D730N), “retained zinc potentiation”. Moreover, the “effect of zinc on glutamate currents” value on GluK2b and GluK3(D730A) is on record as “potentiation”; at GluK2b(D729A) and GluK3 it was “did not potentiate”. Also, the “current with zinc (inhibited), %” value in test [7] is 40% ± 8%; on GluK3/K2S2 it was 54% ± 6%; at GluK3(D759G) it was 32% ± 9%. The “current with zinc (potentiation), %” value in [8] is on record as 186% ± 13%. In addition, the “current with zinc (inhibition), %” value in test [9] is listed as 44% ± 11%. For the same compound, the “current with zinc (facilitated), %” value with GluK2/K3S2 is 197% ± 9%. Besides, on GluK3(H762A), the “peak amplitude with zinc, %” value is on record as 45% ± 6%. Further, the IC50 in [10] is 1 to 2 µM; in the test with GluK1-GluK2 it was around 70 µM. In addition, the “affinity of zinc inhibition of NMDAR function” value with GluN1/GluN2A receptors is “low nanomolar”; in the test with GluN1/GluN2B, “low micromolar”.
